Residues, ends and D or L forms follow the SMILES beside them. *: point of attachment. Cbz = O=C(OCc1ccccc1)*
Experiments:
Type in all cases: cell-based
[1] = system: non-phosphorylated β-catenin; assay: Western blot of non-phosphorylated β-catenin content in DU4475 cells; details: overnight, read-out: Non-phosphorylated β-catenin content inhibition IC50
Text: (§1) The Wnt signaling pathway is a key pathway for abnormal tumor growth. In colon cancer, liver cancer, pancreatic cancer and other cancers, a large number of patients have abnormal activation of the Wnt signaling pathway. The Wnt signaling pathway depends on the fine balance of β-catenin protein level. When Wnt signaling is not activated, β-catenin is phosphorylated by CK1 and APC/Axin/GSK-3β complexes, and the β-catenin protein is kept at a low level through ubiquitin-dependent proteasome degradation. When the Wnt signaling pathway is activated, β-catenin maintains a stable state of non-phosphorylation, and non-phosphorylated β-catenin can be transported into the nucleus through Rac1 and other factors, and plays a transcriptional regulatory role by binding to LEF/TCF transcription factors in the nucleus, activates downstream target genes such as C-myc and Cyclin D1, and promotes cell proliferation. Therefore, abnormal activation of the Wnt signaling pathway in tumor cells will lead to abnormal proliferation of tumors. […]
(§2) Add 500 μL of the compound with the highest concentration shown in FIG. 1 to each well of the 6-well cell culture plate, and make a 10-fold gradient dilution of the compound concentration. […] Load the protein sample directly to the SDS-PAGE gel for electrophoresis separation, transfer the protein on the SDS-PAGE gel to the PVDF membrane; after the transfer was completed, the protein was blocked by Western blocking solution, then Rabbit anti-β-catenin non-phospho S37/After T41 (ab278503) was added and the protein was incubated at room temperature for one hour and washed, the content of non-phosphorylated β-catenin was detected by incubation with Goat Anti-Rabbit IgG H&L (HRP) (ab6721). […]

[2] = system: non-phosphorylated β-catenin; assay: Western blot of non-phosphorylated β-catenin content in HepG2 cells; details: overnight, read-out: Non-phosphorylated β-catenin content inhibition IC50
Text: as §1, §2

[3] = system: non-phosphorylated β-catenin; assay: Western blot of non-phosphorylated β-catenin content in Colo205 cells
Text: The Wnt signaling pathway is a key pathway for abnormal tumor growth. In colon cancer, liver cancer, pancreatic cancer and other cancers, a large number of patients have abnormal activation of the Wnt signaling pathway. The Wnt signaling pathway depends on the fine balance of β-catenin protein level. When Wnt signaling is not activated, β-catenin is phosphorylated by CK1 and APC/Axin/GSK-3β complexes, and the β-catenin protein is kept at a low level through ubiquitin-dependent proteasome degradation. When the Wnt signaling pathway is activated, β-catenin maintains a stable state of non-phosphorylation, and non-phosphorylated β-catenin can be transported into the nucleus through Rac1 and other factors, and plays a transcriptional regulatory role by binding to LEF/TCF transcription factors in the nucleus, activates downstream target genes such as C-myc and Cyclin D1, and promotes cell proliferation. Therefore, abnormal activation of the Wnt signaling pathway in tumor cells will lead to abnormal proliferation of tumors. In order to explore the inhibitory mechanism of the compound on the proliferation of tumor cell lines, the compound AN10250399, AN10250421 or AN10250484 was used to treat sensitive cells Colo205, DU4475 and HepG2, and Western blot was used to detect the content of non-phosphorylated β-catenin in the Wnt pathway to clarify the effect of the compound on content of the non-phosphorylated β-catenin.
Add 500 μL of the compound with the highest concentration shown in FIG. 1 to each well of the 6-well cell culture plate, and make a 10-fold gradient dilution of the compound concentration. Then 500 μL of 10^6 Colo205, DU4475 and HepG2 or 500 μL of medium were inoculated into each well, and corresponding solvent treatment was performed simultaneously as negative control wells. The cells were placed in a 5% CO2 cell incubator, cultured overnight at 37° C. The culture medium was removed, washed once with PBS, 200 μL of RIPA buffer containing protease inhibitors was added to each well, and the protein lysate was collected after lysing on ice for 20 min. Add an appropriate amount of concentrated SDS-PAGE protein loading buffer to the collected protein lysate samples, and heat at 100° C. or in a boiling water bath for 3-5 minutes to fully denature the protein. Load the protein sample directly to the SDS-PAGE gel for electrophoresis separation, transfer the protein on the SDS-PAGE gel to the PVDF membrane; after the transfer was completed, the protein was blocked by Western blocking solution, then Rabbit anti-β-catenin non-phospho S37/After T41 (ab278503) was added and the protein was incubated at room temperature for one hour and washed, the content of non-phosphorylated β-catenin was detected by incubation with Goat Anti-Rabbit IgG H&L (HRP) (ab6721). As a control, glyceraldehyde-3-phosphate dehydrogenase (GAPDH) was used as an internal standard protein

[4] = system: non-phosphorylated β-catenin; assay: Non-phosphorylated β-catenin content in Colo205-LUC-TCF/LEF cells, compound plus MG132; details: 200 nM compound plus 2 μM MG132, 4 hours, FIG. 2
Procedure: Add 500 ul medium containing 200 nM compound plus 2 μM MG132 or 200 nM compound plus control solvent to each well of a 6-well cell culture plate, then add 500 ul containing 10^6 Colo205-LUC-TCF/LEF cells respectively, and incubate for 4 hours Finally, the protein was collected to detect the content of non-phosphorylated β-catenin.

| IC50 [1] [nM] | IC50 [2] [nM] | IC50 ([3]; overnight, Western blot, read-out: Non-phosphorylated β-catenin content inhibition IC50) [nM] | Structure (SMILES) | Effect on content of non-phosphorylated β-catenin (active β-catenin), in words ([3]; FIG. 1) | Effect of MG132 on the reduction of non-phosphorylated β-catenin content caused by AN10250484 [4] |
| --- | --- | --- | --- | --- | --- |
| 2.2 | 51.6 | 10 | Cc1nc(NCc2ccc(Oc3cnc(C(F)(F)F)nc3)nc2)nc2c1NC(=O)[C@H](C)N2C [AN10250421] | decrease the content of non-phosphorylated β-catenin | – |
| – | – | – | CC(C)C[C@@H](C=O)NC(=O)[C@H](CC(C)C)NC(=O)[C@H](CC(C)C)NC(=O)OCc1ccccc1 [MG132] (Cbz-Leu-Leu-Leu-aldehyde) | – | reverses the reduction of the content of non-phosphorylated β-catenin |

Source: patent US20240085425A1, “BIOMARKER AND APPLICATION THEREOF” (ADLAI NORTYE BIOPHARMA CO., LTD., priority 2022, published 2024)
